Test results: US20230312491A1, “N-SUBSTITUTED 4-(5-PHENYL-1,3,4-OXADIAZOL-2-YL)ANILINE FOR THE TREATMENT AND PROPHYLAXIS OF HEPATITIS B VIRUS INFECTION” (priority 2020, published 2023)

Key:
Assay type in all cases: cell-based
HBsAg = experiment: PHH natural infection assay, HBsAg (alphalisa); conditions: Hepatitis B virus, Hepatocyte, 72 h, read-out: HBsAg IC50
Experimental: (§1) Detailed procedures regarding primary human hepatocyte (PHH) HBV natural infection assay are described as below. One tube of frozen PHH (10 million cells) is thawed in 37° C. water bath and then transferred to 20 mL of PHH thawing medium (Sigma, InVitroGRO HT Medium, Cat. S03319) with gently mixing. The cells were then centrifuged at […] for 5 min, the supernatant was discarded and the tube was refilled with 25 mL of PHH plating medium (Sigma, InVitroGRO CP Medium, Cat. S03317). The tube was shaken very gently to re-suspend all cells, and then 50 µl of cells were transferred to each well 384-well collagen I coated plate with appropriate liquid handling equipment, e.g. Integra VIAFLO384 or Agilent Bravo. The cells were then cultured for 24 hours in a cell incubator. For HBV infection, after PHH attachment on the culture plate, the plating medium was removed and replenished with PHH culture medium containing HBV virus. The PHH culture medium was prepared with Dulbecco’s Modified Eagle Medium (DMEM)/F12 (1: 1 in volume ratio) containing 10% fetal bovine serum (Gibco, Cat.10099141), 5 ng/mL human epidermal growth factor (Gibco, Cat.PHG0311L), 20 ng/mL dexamethasone (Sigma, Cat.D4902-100 mg), 250 ng/mL human recombinant insulin (Gibco, Cat.41400045) and 100 U/mL penicillin. HBV virus at 200 genome equivalent (GE) per cell with 4% PEG8000 (Sigma, Cat.P1458) containing culture medium were added to the PHH culture medium for infection. The cells were then cultured for 24 hours in cell incubator. Then the cell culture supernatant was removed. The HBV-infected PHH were cultured with sandwich culture method with PHH culture medium containing 1% DMSO and 0.25 mg/mL matrix gel for 72 hours. The supernatant was then refreshed with PHH culture medium containing different concentrations of testing compounds for two times with 72-hour interval. At the end of treatment, the supernatant was collected for viral markers measurements, including HBsAg, HBeAg, HBV DNA and cytotoxicity. HBsAg and HBeAg were detected using alphalisa method using their specific antibodies. For HBV DNA detection, HBV DNA Quantitative Fluorescence Diagnostic Kit (Sansure Biotech Inc.) was used following the manufacture’s protocol. Cytotoxicity was determined using Cell Counting Kit-8 (CCK8, Dojindo Molecular Technologies, Inc.).
(§2) The compounds of the present invention were tested for their capacity to inhibit HBsAg and HBeAg as described herein.

HBeAg = experiment: PHH natural infection assay, HBeAg (alphalisa); conditions: Hepatitis B virus, Hepatocyte, 72 h, read-out: HBeAg IC50
Experimental: as §1, §2

[1] = PHH natural infection assay, cytotoxicity (Cell Counting Kit-8); conditions: HBV-infected primary human hepatocytes, CCK8
Experimental: as §1

SMILES | IC50 (HBsAg) [µM] | IC50 (HBeAg) [µM] | CC50 at 144 h [1] [µM]
CCC(=O)Nc1ccc(-c2nnc(-c3ccccc3)o2)cc1 [Example 1, N-[4-(5-phenyl-1,3,4-oxadiazol-2-yl)phenyl]propanamide] | 1.19 | 4.85 | > 100
CCCC(=O)Nc1ccc(-c2nnc(-c3ccccc3)o2)cc1 [Example 2, N-[4-(5-phenyl-1,3,4-oxadiazol-2-yl)phenyl]butanamide] | 3 | 43.1 | > 100
CCCCC(=O)Nc1ccc(-c2nnc(-c3ccccc3)o2)cc1 [Example 3, N-[4-(5-phenyl-1,3,4-oxadiazol-2-yl)phenyl]pentanamide] | 2.39 | 3.01 | > 100
CC(C)CC(=O)Nc1ccc(-c2nnc(-c3ccccc3)o2)cc1 [Example 4, 3-methyl-N-[4-(5-phenyl-1,3,4-oxadiazol-2-yl)phenyl]butanamide] | 2.8 | 3.43 | > 100
COCCC(=O)Nc1ccc(-c2nnc(-c3ccccc3)o2)cc1 [Example 5, 3-methoxy-N-[4-(5-phenyl-1,3,4-oxadiazol-2-yl)phenyl]propanamide] | 0.59 | 0.69 | > 100
CC(C)C(=O)Nc1ccc(-c2nnc(-c3ccccc3)o2)cc1 [Example 6, 2-methyl-N-[4-(5-phenyl-1,3,4-oxadiazol-2-yl)phenyl]propanamide] | 1.33 | 2.2 | > 100
O=C(Nc1ccc(-c2nnc(-c3ccccc3)o2)cc1)C1CCCC1 [Example 7, N-[4-(5-phenyl-1,3,4-oxadiazol-2-yl)phenyl]cyclopentanecarboxamide] | 0.51 | 0.77 | > 100
O=C(Nc1ccc(-c2nnc(-c3ccccc3)o2)cc1)c1ccccc1F [Example 8, 2-fluoro-N-[4-(5-phenyl-1,3,4-oxadiazol-2-yl)phenyl]benzamide] | 4.17 | 5.06 | > 100
O=C(Nc1ccc(-c2nnc(-c3ccccc3)o2)cc1)c1ccccc1Cl [Example 9, 2-chloro-N-[4-(5-phenyl-1,3,4-oxadiazol-2-yl)phenyl]benzamide] | 8.23 | 1.69 | > 100
Cc1cc(F)cc(C(=O)Nc2ccc(-c3nnc(-c4ccccc4)o3)cc2)c1 [Example 10, 3-fluoro-5-methyl-N-[4-(5-phenyl-1,3,4-oxadiazol-2-yl)phenyl]benzamide] | 1.61 | 2.17 | > 100
Cc1cc(Cl)cc(C(=O)Nc2ccc(-c3nnc(-c4ccccc4)o3)cc2)c1 [Example 11, 3-chloro-5-methyl-N-[4-(5-phenyl-1,3,4-oxadiazol-2-yl)phenyl]benzamide] | 6.4 | 12.7 | > 100
O=C(Nc1ccc(-c2nnc(-c3ccccc3)o2)cc1)c1ccc(F)cc1 [Example 12, 4-fluoro-N-[4-(5-phenyl-1,3,4-oxadiazol-2-yl)phenyl]benzamide] | 6.2 | 6.33 | > 100
O=C(Nc1ccc(-c2nnc(-c3ccccc3)o2)cc1)c1ccc(Cl)cc1 [Example 13, 4-chloro-N-[4-(5-phenyl-1,3,4-oxadiazol-2-yl)phenyl]benzamide] | 5.62 | 4.43 | > 100
O=C(Nc1ccc(-c2nnc(-c3ccccc3)o2)cc1)c1ccccc1OC(F)(F)F [Example 14, N-[4-(5-phenyl-1,3,4-oxadiazol-2-yl)phenyl]-2-(trifluoromethoxy)benzamide] | 3.59 | 2.88 | > 100
O=C(Nc1ccc(-c2nnc(-c3ccccc3)o2)cc1)c1ccccc1OC(F)F [Example 15, 2-(difluoromethoxy)-N-[4-(5-phenyl-1,3,4-oxadiazol-2-yl)phenyl]benzamide] | 1.94 | 1.94 | > 100
O=C(Nc1ccc(-c2nnc(-c3ccccc3)o2)cc1)c1cccc(OC(F)(F)F)c1 [Example 16, N-[4-(5-phenyl-1,3,4-oxadiazol-2-yl)phenyl]-3-(trifluoromethoxy)benzamide] | 1.35 | 2.91 | > 100

SMILES | IC50 (HBsAg) [µM] | IC50 (HBeAg) [µM] | CC50 at 144 h [1] [µM]
O=C(Nc1ccc(-c2nnc(-c3ccccc3)o2)cc1)c1cccc(OC(F)F)c1 [Example 17, 3-(difluoromethoxy)-N-[4-(5-phenyl-1,3,4-oxadiazol-2-yl)phenyl]benzamide] | 1.46 | 2.79 | > 100
N#Cc1ccc(C(=O)Nc2ccc(-c3nnc(-c4ccccc4)o3)cc2)cc1 [Example 18, 4-cyano-N-[4-(5-phenyl-1,3,4-oxadiazol-2-yl)phenyl]benzamide] | 2.54 | 2.26 | > 100
O=C(Nc1ccc(-c2nnc(-c3ccccc3)o2)cc1)c1ccncc1 [Example 19, N-[4-(5-phenyl-1,3,4-oxadiazol-2-yl)phenyl]pyridine-4-carboxamide] | 4.8 | 2.8 | > 100
O=C(Nc1ccc(-c2nnc(-c3ccccc3)o2)cc1)c1ccnc(Cl)c1 [Example 20, 2-chloro-N-[4-(5-phenyl-1,3,4-oxadiazol-2-yl)phenyl]pyridine-4-carboxamide] | 1.39 | 2.56 | > 100
COc1cc(C(=O)Nc2ccc(-c3nnc(-c4ccccc4)o3)cc2)ccn1 [Example 21, 2-methoxy-N-[4-(5-phenyl-1,3,4-oxadiazol-2-yl)phenyl]pyridine-4-carboxamide] | 2 | 1.91 | > 100
O=C(Nc1ccc(-c2nnc(-c3ccccc3)o2)cc1)c1cccc(Cl)n1 [Example 22, 6-chloro-N-[4-(5-phenyl-1,3,4-oxadiazol-2-yl)phenyl]pyridine-2-carboxamide] | 0.96 | 1.59 | > 100
O=C(Nc1ccc(-c2nnc(-c3ccccc3)o2)cc1)c1ccc(Cl)cn1 [Example 23, 5-chloro-N-[4-(5-phenyl-1,3,4-oxadiazol-2-yl)phenyl]pyridine-2-carboxamide] | 1.23 | 2.12 | > 100
O=C(Nc1ccc(-c2nnc(-c3ccccc3)o2)cc1)c1ccnnc1 [Example 24, N-[4-(5-phenyl-1,3,4-oxadiazol-2-yl)phenyl]pyridazine-4-carboxamide] | 1.2 | 1.6 | > 100
O=C(Nc1ccc(-c2nnc(-c3ccccc3)o2)cc1)c1cccnn1 [Example 25, N-[4-(5-phenyl-1,3,4-oxadiazol-2-yl)phenyl]pyridazine-3-carboxamide] | 1.09 | 1.27 | > 100
O=C(Nc1ccc(-c2nnc(-c3ccccc3)o2)cc1)c1ncco1 [Example 26, N-[4-(5-phenyl-1,3,4-oxadiazol-2-yl)phenyl]oxazole-2-carboxamide] | 0.91 | 1.42 | > 100
O=C(Nc1ccc(-c2nnc(-c3ccccc3)o2)cc1)c1nccs1 [Example 27, N-[4-(5-phenyl-1,3,4-oxadiazol-2-yl)phenyl]thiazole-2-carboxamide] | 1.52 | 1.71 | > 100
CC(C)(C)C(=O)Nc1ccc(-c2nnc(-c3ccccc3)o2)cc1 [Example 28, 2,2-dimethyl-N-[4-(5-phenyl-1,3,4-oxadiazol-2-yl)phenyl]propanamide] | 7.65 | 4.23 | > 100
CC(C)(C)CC(=O)Nc1ccc(-c2nnc(-c3ccccc3)o2)cc1 [Example 29, 3,3-dimethyl-N-[4-(5-phenyl-1,3,4-oxadiazol-2-yl)phenyl]butanamide] | 5.1 | 9.57 | > 100
Cc1cc(-c2nnc(-c3ccccc3)o2)ccc1N [Example 30, 2-methyl-4-(5-phenyl-1,3,4-oxadiazol-2-yl)aniline] | 1.43 | 3.21 | > 100
COc1cc(-c2nnc(-c3ccccc3)o2)ccc1N [Example 31, 2-Methoxy-4-(5-phenyl-1,3,4-oxadiazol-2-yl)aniline] | 1.49 | 4.17 | > 100
Nc1ccc(-c2nnc(-c3ccccc3)o2)cc1F [Example 32, 2-Fluoro-4-(5-phenyl-1,3,4-oxadiazol-2-yl)aniline] | 2.39 | 2.81 | > 100
